Values quoted from earlier work, collected in paper PMC8359378 (British Journal of Clinical Pharmacology, 2021).

What was measured:
[1] = intravenous infusion; cited from earlier work
[2] = tested on: factor XIa activity; details: cited from earlier work
[3] = tested on: FXI and FXIa; details: subcutaneous administration; cited from earlier work

Molecule: CN1CCN(c2cccc3c2CCN(C(=O)/C=C/c2c(-n4cnnn4)ccc(Cl)c2F)[C@@H]3C(=O)Nc2ccc(C(=O)O)cc2)C(=O)C1 [BMS‐962212]
- patients in the active treated groups reporting AEs [1]: 17.6%
- patients reporting infusion site pain or irritation [1]: 5.9%

B1: Osocimab: fully human IgG1 monoclonal antibody targeting coagulation factor XIa (antibody, chains of the INN, looked up, V domains shown)
VH: EVQLLESGGGLVQPGGSLRLSCAASGFTFSQYGMDWVRQAPGKGLEWVSGIGPSGGSTVYADSVKGRFTISRDNSKNTLYLQMNSLRAEDTAVYYCTRGGPYYYYGMDVWGQGTTVTVSS
VL: DIQMTQSPSSLSASVGDRVTITCQASQDISNYLNWYQQKPGKAPKLLIYDASNLETGVPSRFSGSGSGTDFTFTISSLQPEDIATYYCQQADSFPVTFGGGTKVEIK
- effect on apparent factor XIa activity and aPTT [2]: reduced apparent factor XIa activity and prolonged aPTT in a dose‐dependent manner

B2: MAA868: fully human antibody which binds both FXI and FXIa (antibody, chains of the INN, looked up, V domains shown)
VH: QVQLLESGGGLVQPGGSLRLSCAASGFTFSTAAMSWVRQAPGKGLEWVSGISGSGSSTYYADSVKGRFTISRDNSKNTLYLQMNSLRAEDTAVYYCARELSYLYSGYYFDYWGQGTLVTVSS
VL: QSVLTQPPSASGTPGQRVTISCSGSSSNIGSNDVSWYQQLPGTAPKLLIYKNYNRPSGVPDRFSGSKSGTSASLAISGLQSEDEADYYCSAWDQRQFDVVFGGGTKLTVL
- effect on aPTT and FXI [3]: robust and sustained prolongation of aPTT and FXI suppression
